# Columns and labels:
# [1] = target: T1, α4β1 Integrin (Homo sapiens, UniProt P05556+P13612); assay: α4β1 Integrin Adhesion Assay: Jurkat cell adhesion to human plasma fibronectin; type: cell-based; conditions: Jurkat cells
# T1 construct: endogenous in cells; host or cells: Jurkat cells
# Method: 96 well plates (Costar 3590 EIA plates) were coated with human fibronectin (Gibco/BRL, cat #33016-023) at a concentration of 10 μg/mL overnight at 4° C. The plates were then blocked with a solution of bovine serum albumin (BSA; 0.3%) in saline. Jurkat™ cells (maintained in log phase growth) were labeled with Calcein AM according to the manufacturer's instructions, and suspended at a concentration of 2×10^6 cells/mL in Hepes/Saline/BSA. The cells were then exposed to test and control compounds for 30 minutes at room temperature before transfer to individual wells of the fibronectin coated plate. Adhesion was allowed to occur for 35 minutes at 37° C. The wells were then washed by gentle aspiration and pipetting with fresh saline. Fluorescence associated with the remaining adherent cells was quantified using a fluorescence plate reader at EX 485/EM 530.
# Cell cultures were prepared by first splitting the stationary phase Jurkat™ cells at 1:10 on day one, and 1:2 on day two to perform assay on day 3. The cells split 1:10 on day one were split 1:4 on day 3 for a day 4 assay.
# The assay plates were prepared by first making a working solution of Gibco/BRL Human Fibronectin (cat # 33016-023) in PBS++, at 10 μg/mL.
# A Costar 3590 EIA plate was then coated with 50 μL/well for 2 hours at room temperature (thought it can also be left overnight at 4° C.). Finally the plate was asperated and blocked with Hepes/Saline Buffer, 100 μL/well, for 1 hour at RT followed by washing three times with 150 μL of PBS++.
# Compound dilutions were accomplished by preparing 1:3 serial dilutions of compounds as follows. For each plate (4 compounds/plate) 600 μL were added to 4 Bio-Rad Titertubes in a Titertube rack. Enough compound was added to each appropriate tube to give a 2× concentration using methods well known in the art. Using Falcon Flexiplates, 100 μL of Hepes/Saline buffer or human serum were added to rows B through G. A multi-channel pipetter set to 180 μL was used to with four tips spaced evenly the pipetter. Each set of four tubes was mixed 5 times and 180 μL of 2× compound was transferred to the first column of each compound dilution in Row B, leaving Row A empty. 180 μL were added to the other wells in Row A. Serial dilutions were performed down the plate by transferring 50 μL to the next dilution and mixing 5 times, changing tips each time after mixing. Dilutions were stopped at Row F. Row G had no compound present.
# A 20 μg/mL solution in Hepes/Saline buffer or human serum, of 21/6 antibody was the positive control and was set aside in a reagent trough to add to cell suspension plate.
# The cell staining was accomplished by first harvesting the log-phase Jurkat™ cells by centrifugation in 50 mL tubes (1100 rpm for 5 minutes). The cells were resuspended in 50 mL PBS++, spun, and resuspend in 20 mL PBS++. The cells were stained by adding 20 μL of Calcein AM for 30 minutes R.T. The volume was brought to 50 mL with Hepes/Saline buffer and the cells were counted, spun, and resuspend to 2×10^6 cells/mL in Hepes/Saline buffer or human serum.
# The compounds were incubated using the following procedure. In a new flexiplate, 65 μL of stained cells were added to Rows B through H. Then 65 μL of 2× compounds were added to the appropriate rows following the plate setup and mixed 3×. 65 μL of 2×-21/6 antibody were added to Row H and mixed 3×. Finally the plate was incubated at room temperature for 30 minutes.
# Fibronectin adhesion was measured using a fluorescent plate reader at EX 485/EM 530 after the following work up procedure. After incubation, the cells were mixed 3× and 100 μL were transferred to the Fibronectin coated plates and incubated at 37° C. for about 35 minutes. Each plate was washed, row by row, by gently pipetting 100 μL of R.T. PBS++ down the sides of the wells and turning the plate 90 degrees to aspirate. This procedure was repeated for a total of 3 washes. Each well was filled with 100 μL after washing by pipetting down the side of the well. […]
# [2] = Cassette dosing and serum analysis for determination of oral bioavailability; type: in vivo, rat; conditions: male SD rats, oral cassette of 6 compounds, total dose 10 mg/kg, plasma at 4, 8, 12 h
# Method: The oral bioavailability was screened by dosing rats with a cassette, i.e. mixture of 6 compounds per dosing solution. The cassette included 5 test articles and a standard compound, for a total dose of 10 mg/kg. Each compound/test article was converted to the sodium salt with equimolar 1 N NaOH and dissolved in water at 2 mg/mL. The cassette was prepared by mixing equal volumes of each of the six solutions. The cassette dosing solution was mixed well and then the pH was adjusted to 7.5–9. The dosing solution was prepared the day before the study and stirred overnight at room temperature.
# Male Sprague Dawley (SD) rats from Charles River Laboratories, 6–8 weeks old were used in this screen. Rats were quarantined for at least one day and had continuous access to food and water. On the night before the administration of the cassette, the rats were fasted for approximately 16 h.
# Four SD rats were assigned in each cassette. A single dose of the dosing solution was administered orally to each rat. The dosing volume (5 mL/kg) and time were recorded and rats were fed 2 h after dosing.
# Blood samples were collected via cardiac puncture at the following time points: 4 h, 8 h and 12 h. Immediately prior to blood collection, rats were anesthetized with CO2 gas within 10–20 seconds. After the 12-hour samples were collected, the rats were euthanized via CO2 asphyxiation followed by cervical dislocation.
# Blood samples were kept in heparinized microtainer tubes under sub-ambient temperature (4° C.) before they were processed. Blood samples were centrifuged (10000 rpm for 5 minutes) and plasma samples were removed and stored in a −20° C. freezer until analyzed for drug levels. Drug levels in the plasma were analyzed using the following protocol for direct plasma precipitation.
# The in vivo plasma samples were prepared in a 1.5 mL 96-well plate, by adding, in order, 100 μL of the test plasma, 150 μL of methanol, followed by vortexing for 10–20 seconds. 150 μL of 0.05 ng/μL of an Internal Standard in acetonitrile were added and vortexed for 30 seconds.
# The standard curve samples were prepared in a 1.5 mL 96-well plate, by adding, in order, 100 μL of control mouse plasma, followed by 150 μL of methanol and vortexing for 10–20 seconds. 150 μL of 0.05 ng/μL of an Internal Standard in acetonitrile were added and vortexed for 30 seconds. The samples were spiked with 0–200 ng (10 concentrations) of the compound of interest in 50% methanol to obtain a standard curve range of 0.5 ng/mL–2,000 ng/mL. Again, the sample was vortexed for 30 seconds.
# The samples were then spun for 20–30 minutes at 3000 rpm in an Eppendorf microfuge before 80–90% of supernatant was transferred into a clean 96-well plate. The organic solvent was then evaporated until the samples were dry (under N2 at 40° C./30–60 min (ZymarkTurbovap)).
# The residue was then dissolved in […] mobile phase (50% CH3OH/0.1% TFA). LC/MS/MS was then run using a PE-Sciex API-3000 triple quadurpole mass spectrometer (SN0749707), Perkin-Elmer, Series200auto-sampler, and shimadzu 10A pump. Acquisition was done with PE-Sciex Analyst (v1.1) and data analysis and quantification were accomplished using PE-Sciex Analyst (v1.1). A 5–50 μL sample volume was injected onto a reverse phase ThermoHypersil DASH-18 column (Keystone 2.0×20 mm, 5 μm, PN: 8823025-701) using a mobile phase of 25% CH3OH, 0.1% TFA-100% CH3OH, 0.1% TFA. The run time was about 8 minutes at a flow rate of about 300 μL/minutes.
# The Area Under the Curve (AUC) was calculated using the linear trapezoidal rule from t=0 to the last sampling time tx (see Handbook of Basic Pharmacokinetics, Wolfgang A. Ritschel and Gregory L. Kearns, 5th ed, 1999). AUC^0→tx═S((Cn+Cn+1)/2))·(tn+1−tn)[(μg/mL)h]
# In the case of the cassette dosing paradigm, samples at 4, 8 and 12 h post extravascular dosing, the AUC was calculated from t=0 to t=12 h.
# [3] = IC50, Cell Adhesion to Human Plasma Fibronectin (With Human Serum), with human serum
# [4] = IC50, Cell Adhesion to Human Plasma Fibronectin (Without the Human Serum), without human serum
# T1 sequence (P13612 34-1032): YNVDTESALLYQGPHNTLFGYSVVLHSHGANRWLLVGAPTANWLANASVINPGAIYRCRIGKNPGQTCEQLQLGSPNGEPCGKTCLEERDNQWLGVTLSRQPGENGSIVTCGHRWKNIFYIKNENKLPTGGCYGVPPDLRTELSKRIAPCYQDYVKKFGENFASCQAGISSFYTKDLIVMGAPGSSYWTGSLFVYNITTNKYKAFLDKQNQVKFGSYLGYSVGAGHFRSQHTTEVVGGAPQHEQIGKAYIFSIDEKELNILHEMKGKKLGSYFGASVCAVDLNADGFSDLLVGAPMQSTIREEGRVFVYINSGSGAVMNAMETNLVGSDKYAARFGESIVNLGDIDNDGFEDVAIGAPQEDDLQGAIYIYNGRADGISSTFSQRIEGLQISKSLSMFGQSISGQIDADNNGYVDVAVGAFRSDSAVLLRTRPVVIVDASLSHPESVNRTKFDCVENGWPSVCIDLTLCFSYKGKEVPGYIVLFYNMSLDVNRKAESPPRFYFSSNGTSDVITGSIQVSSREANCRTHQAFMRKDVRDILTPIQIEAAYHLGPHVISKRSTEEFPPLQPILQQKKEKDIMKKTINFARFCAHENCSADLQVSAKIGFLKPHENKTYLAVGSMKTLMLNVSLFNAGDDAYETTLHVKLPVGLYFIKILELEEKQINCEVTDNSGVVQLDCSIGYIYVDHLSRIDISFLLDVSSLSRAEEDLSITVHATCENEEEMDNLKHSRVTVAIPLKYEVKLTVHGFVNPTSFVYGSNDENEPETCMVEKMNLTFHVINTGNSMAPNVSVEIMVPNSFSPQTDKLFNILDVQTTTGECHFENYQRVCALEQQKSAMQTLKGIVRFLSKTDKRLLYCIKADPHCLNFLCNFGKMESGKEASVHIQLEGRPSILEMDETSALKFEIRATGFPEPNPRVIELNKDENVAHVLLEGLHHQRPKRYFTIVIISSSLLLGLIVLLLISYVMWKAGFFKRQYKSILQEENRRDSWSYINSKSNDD
# T1 sequence (P05556 21-798): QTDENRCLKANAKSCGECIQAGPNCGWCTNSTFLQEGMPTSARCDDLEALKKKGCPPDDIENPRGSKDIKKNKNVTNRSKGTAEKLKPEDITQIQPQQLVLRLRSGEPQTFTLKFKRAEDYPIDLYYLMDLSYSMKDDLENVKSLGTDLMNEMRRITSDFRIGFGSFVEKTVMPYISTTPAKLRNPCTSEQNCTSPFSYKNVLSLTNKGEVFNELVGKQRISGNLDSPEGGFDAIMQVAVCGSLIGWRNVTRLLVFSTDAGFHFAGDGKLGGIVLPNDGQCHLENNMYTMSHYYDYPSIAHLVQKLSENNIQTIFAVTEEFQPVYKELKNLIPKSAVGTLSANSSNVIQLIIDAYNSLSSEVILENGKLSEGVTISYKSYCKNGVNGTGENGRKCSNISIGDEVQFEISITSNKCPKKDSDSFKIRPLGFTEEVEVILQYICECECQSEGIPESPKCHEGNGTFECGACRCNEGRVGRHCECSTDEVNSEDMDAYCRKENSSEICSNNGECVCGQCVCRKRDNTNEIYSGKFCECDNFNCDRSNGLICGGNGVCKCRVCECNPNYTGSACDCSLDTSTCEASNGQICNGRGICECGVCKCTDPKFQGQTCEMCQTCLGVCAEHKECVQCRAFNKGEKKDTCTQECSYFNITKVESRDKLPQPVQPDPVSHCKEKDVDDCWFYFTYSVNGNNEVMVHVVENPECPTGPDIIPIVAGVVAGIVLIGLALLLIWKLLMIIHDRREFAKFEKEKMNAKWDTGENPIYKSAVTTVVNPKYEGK
Molecule,"IC50, Cell Adhesion to Human Plasma Fibronectin (With Human Serum) ([1]; with human serum)","IC50, Cell Adhesion to Human Plasma Fibronectin (Without the Human Serum) ([1]; without human serum)",AUC (average AUC 0→12 h) [2],"IC50 [1, 3]","IC50 [1, 4]"
2-{2-diethylamino-5-[(4-chlorobenzenesulfonyl)methylamino]pyrimidin-4-ylamino}-3-(4-dimethylcarbamoyloxyphenyl)propionic acid [Example 2],0.317 µg/mL,0.002 µg/mL,1.8689 (μg/mL)h,–,–
2-{2-diethylamino-5-[(4-fluorobenzenesulfonyl)methylamino]pyrimidin-4-ylamino}-3-(4-dimethylcarbamoyloxyphenyl)propionic acid [Example 1],0.318 µg/mL,0.002 µg/mL,2.3308 (μg/mL)h,–,–
CCN(CC)c1ncc(N(CC)S(=O)(=O)c2ccc(F)cc2F)c(N[C@@H](Cc2ccc(OC(=O)N(C)C)cc2)C(=O)O)n1 [Example 18],–,–,0.2578 (μg/mL)h,40.3 nM,3.22 nM
"CCN(CC)c1ncc(N(C)S(=O)(=O)c2cc(F)cc(F)c2)c(N[C@@H](Cc2ccc(OC(=O)N(C)C)cc2)C(=O)O)n1 [Example 15, 2-{2-diethylamino-5-[(3.5-difluorobenzenesulfonyl)methylamino]pyrimidin-4-ylamino}-3-(4-dimethylcarbamoyloxypheyl) propionic acid]",–,–,0.2098 (μg/mL)h,205 nM,1.51 nM
CCN(CC)c1ncc(N(C(C)C)S(=O)(=O)c2ccc(Cl)cc2)c(N[C@@H](Cc2ccc(OC(=O)N(C)C)cc2)C(=O)O)n1 [Example 11],–,–,0.4251 (μg/mL)h,362 nM,3.85 nM
CCN(CC)c1ncc(N(C(C)C)S(=O)(=O)c2ccc(F)cc2)c(N[C@@H](Cc2ccc(OC(=O)N(C)C)cc2)C(=O)O)n1 [Example 8],–,–,0.5088 (μg/mL)h,264 nM,4.87 nM
"CCCCN(c1cnc(N(CC)CC)nc1NC(Cc1ccc(OC(=O)N(C)C)cc1)C(=O)O)S(=O)(=O)c1ccc(F)cc1 (stereo not drawn) [Example 24, 2-{2-diethylamino-5-[(4-fluorobenzenesulfonyl)-n-butylamino]pyrimidin-4-ylamino}-3-(4-dimethylcarbamoyloxyphenyl)propionic acid]",–,–,0.4983 (μg/mL)h,42.8 nM,4.76 nM
2-{2-diethylamino-5-[(2-fluorobenzenesulfonyl)methylamino]pyrimidin-4-ylamino}-3-(4-dimethylcarbamoyloxyphenyl)propionic acid [Example 6],0.3138 µg/mL,0.000511 µg/mL,0.6538 (μg/mL)h,–,–
"CCN(CC)c1ncc(N(CC2CC2)S(=O)(=O)c2ccc(F)cc2)c(N[C@@H](Cc2ccc(OC(=O)N(C)C)cc2)C(=O)O)n1 [Example 14, 2-{2-diethylamino-5-[(4-fluorobenzenesulfonyl)cylclopropylmethylamino]pyrimidin-4-ylamino}-3-(4-dimethylcarbamoyl-oxyphenyl)propionic acid]",–,–,0.7164 (μg/mL)h,63.6 nM,1.59 nM
"CCN(CC)c1ncc(N(C)S(=O)(=O)c2cccc(F)c2)c(N[C@@H](Cc2ccc(OC(=O)N(C)C)cc2)C(=O)O)n1 [Example 7, 2-{2-diethylamino-5-[(3-fluorobenzenesulfonyl)methylaminol]pyrimidin-4-ylamino}-3-(4-dimethylcarbamoyloxyphenyl) propionic acid]",–,–,0.717 (μg/mL)h,997 nM,1.39 nM
"CCN(CC)c1ncc(N(C(C)C)S(=O)(=O)c2ccc(F)c(F)c2)c(NC(Cc2ccc(OC(=O)N(C)C)cc2)C(=O)O)n1 (stereo not drawn) [Example 10, 2-{2-diethylamino-5-[(3,4-difluorobenzenesulfonyl)isopropylamino]pyrimidin-4-ylamino}-3-(4-dimethylcarbamoyloxyphenyl) propionic acid]",–,–,0.1215 (μg/mL)h,404 nM,7.33 nM
"CCN(CC)c1ncc(N(CC)S(=O)(=O)c2cccc(F)c2F)c(NC(Cc2ccc(OC(=O)N(C)C)cc2)C(=O)O)n1 (stereo not drawn) [Example 26, 2-{2-diethylamino-5-[(2.3-difluorobenzenesulfonyl)ethylamino]pyrimidin-4-ylamino}-3-(4-dimethylcarbamoyloxyphenyl) propionic acid]",0.01848 µg/mL,0.001 µg/mL,0.3392 (μg/mL)h,–,–

# From US7008949B2, “Heterocyclic compounds which inhibit leukocyte adhesion mediated by α4 integrins” (Elan Pharmaceuticals, Inc., priority 2003, dated 2006)
